Assay results from patent publication JP2008280350A, “ナリンゲニンカルコンを有効成分とするヒスタミン遊離抑制剤又はロイコトリエン遊離抑制剤を含有する医薬品、飲食品又は化粧品” (Kikkoman Corp, priority 2000, dated 2001).
Converted amounts (≈) assume the structure as drawn. Where two headings read alike, the source gives them in different places.

Legend:
rat mast cells [ラット肥満細胞] = assay: Histamine release inhibition from rat mast cells (compound 48/80 induced); format: cell-based; details: for IC50: Rattus norvegicus, Mast cell, 10 min, read-out: IC50 (50% inhibition rate), histamine release
[1] = tested on: cell suspension prepared as in Example 2 (rat mast cells) [ラット肥満細胞]; assay: Cytotoxicity test (trypan blue cell viability); format: cell-based; details: 37°C, 0, 10, 20, 60, 120 min
[2] = tested on: mouse ear edema model [マウス耳介浮腫モデル]; assay: Anaphylaxis inhibition in mouse ear edema model; format: in vivo; details: C3H/Hecrj mice, female; oral; 0.8, 0.16, 0.032, 0.0064 mg/kg; 6 doses over 5 days; anti-TNP-IgE, picryl chloride (Fig. 4)
[3] = tested on: rat macrophages [ラットマクロファージ]; assay: Leukotriene B4 release inhibition from rat macrophages (opsonized zymosan induced); format: cell-based; details: sample added 30 min before zymosan, LTB4 by ELISA (Table 2)

Row | IC50 (rat mast cells [ラット肥満細胞]; compound 48/80 (5 μg/ml) as inducer, 37°C, sample solutions 25-250 μg/ml) [µg/mL] | SMILES | histamine release inhibitory activity (in words) (rat mast cells [ラット肥満細胞]; compound 48/80 as inducer, compared with ketotifen fumarate (Table 1)) | histamine release inhibitory activity relative to ketotifen fumarate (fold) (rat mast cells [ラット肥満細胞]; from IC50 values, versus ketotifen fumarate) | cytotoxicity (cell viability, number of viable cells) [1] | anaphylaxis inhibitory activity (ear edema) [2] | leukotriene release inhibitory activity [3] | IC50 (rat mast cells [ラット肥満細胞]) [µg/mL]
1 | ~70 (≈ 257 µM) | O=C(/C=C/c1ccc(O)cc1)c1c(O)cc(O)cc1O [ナリンゲニンカルコン, 2’4’6’4’−Tetrahydroxychalcone] | 公知のヒスタミン遊離抑制剤であるフマル酸ケトチフェンよりも強い、ヒスタミン遊離抑制活性を示した | ~3.5 倍 (fold) | 細胞毒性は見られなかった | 容量依存的なアナフィラキシー抑制活性を示した | 用量依存的に、ロイコトリエン遊離抑制活性を示した | –
2 | – | CN1CCC(=C2c3ccccc3CC(=O)c3sccc32)CC1 [フマル酸ケトチフェン, reference compound] | – | – | – | – | – | ~250 (≈ 808 µM)
